From patent US20050112573A1, “Method of detecting toxic substance” (priority 2001, published 2005)
Where two headings read alike, the source gives them in different places.

Key:
Type in all cases: cell-based, Saccharomyces cerevisiae W303
[1] = test system: promoter of yeast gene YLR303w; settings: SC-YCR303W-pQBI cells (so in the source); summary of Table 14
From the text: (§1) The inventors of the present application understood that the induction of certain yeast genes by toxic substances is caused by the activation of the promoters of the genes by the toxic substances. Thus, the inventors prepared a vector that comprised a polynucleotide sequence comprising the promoter of the yeast gene, which sequence is operably linked to a polynucleotide encoding a marker protein; and transformed yeast cells with the vector. […] The working examples hereinafter illustrate the preparation of such vectors, transformation of yeast cells by use of said vectors, and the detection of toxic substances by use of the transformed cells.
(§2) Promoter assay is a method for determining variations of the level of intracellular genes without destroying cells on the basis of the level of expressed marker genes instead of the expressed mRNA. The gene selected to detect a chemical substance is expressed in the absence of chemical substances, and thus a marker protein also occurs in the absence of chemical substances. In the method according to the present invention, the behavior of yeast genes on the addition of test materials is determined on the basis of the level of expressed marker protein so that the presence or the absence, and the kind of toxic chemical substances are predicted. Thus, it is desired that the production of marker proteins is lower in the absence of chemical substances, and the production of marker proteins is higher in the presence of chemical substances.
(§3) Type YEp shuttle vector pYES2 (pYES2, Cat no: V825-20, Invirtogen Corporation, USA), which can be replicated both in E. coli. and yeast was used as vector (R. W. Old, S. B. Primrose Principles of Gene Manipulation 5th Ed., BAIFUKAN CO., LTD, pp138-165, pp.234-263, 2000). The portion of vector pQBI 63 (Cat no.54-0082, Wako Pure Chemical Industries, Ltd.) corresponding to a marker protein GFP was used as the polynucleotide encoding GFP (SEQ ID No: 6). First, the GFP polynucleotide was inserted into the multiple cloning sites of pYES2 to give a vector. Thereafter, the GAL1 promoter of pYES2 was replaced with the polynucleotide comprising the promoter sequence of the intended yeast gene YLR303w (SEQ ID No: 5) to give an intended plasmid vector. Suitable restriction enzymes were selected, and the insertion of the polynucleotide comprising GFP and the promoter sequence was conducted.
(§4) Next, the yeast Saccharomyces cerevisiae W303 was transformed with the resultant plasmid vector according to the following procedures: • 1) Incubating the yeast Saccharomyces cerevisiae W303 in 200 ml of SD medium under shaking until OD 660 reaches 0.5; • 2) Suspending the collected cells in 5 ml of TE-buffer; • 3) Adding 250 μL of 2.5M lithium acetate; • 4) Dispending each 300 μl, adding 10 μl of above plasmid vector thereto, then incubating the suspensions at 30° C. for 30 minutes; • 5) Adding 700 μl of 50% PEG4000, and incubating the mixture under shaking at 30° C. for 60 minutes; • 6) Giving heat shock (42° C., 5 minutes), and then immediately cooling the mixture; • 7) Washing the mixture twice with 1M sorbitol; and • 8) Seeding it on agar plates made of minimum essential medium.
(§5) The cells of SC-YCR303W-pQBI as prepared in Example 6 were contacted to one of the following compounds. The yeast cells SC-YCR303W-pQBI were incubated at 25° C. in SD medium (Yeast nitrogen base without amino acids (Difco 0919-15)+glucose+amino acids (adenine, histidine, tryptophan)). One of toxic chemical substances as shown below was added to the cells at logarithmic growth phase, and then the cells were further incubated for two hours.

[2] = test system: promoter of yeast gene YOR382w
From the text: as §1, §2
as §3, with “YOR382w” for “YLR303w”, “3)” for “5)”
as §4
as §5, with “SC-YOR382W-pQBI” for “SC-YCR303W-pQBI”, “4” for “6”

[3] = test system: promoter of yeast gene YLL057c; settings: SC-YLL057C-pQBI cells; summary of Table 13
From the text: as §1, §2
as §3, with “PQBI” for “pQBI”, “GALL” for “GAL1”, “YLL057c” for “YLR303w”, “4)” for “5)”
as §4
as §5, with “SC-YLL057C-pQBI” for “SC-YCR303W-pQBI”, “5” for “6”

[4] = SC-YOR382W-pQBI cells, summary of Table 12

SMILES | expression of GFP [1] | expression of GFP [2, 4] | expression of GFP [3] | expression of GFP [2]
O=C(O)COc1ccc(Cl)cc1Cl [2,4-dichlorophenoxyacetic acid] | induced the expression of GFP | induced the expression of GFP | induced the expression of GFP | 
c1ccc2c(c1)cc1ccc3cccc4ccc2c1c34 [benzo(a)pyrene] | induced the expression of GFP |  |  | 
CCCCCCCCCc1ccc(O)cc1 [p-nonylphenol] |  | induced the expression of GFP |  | 
Oc1ccccc1 [phenol] |  |  |  | induced the expression of GFP
